From patent US12303509B2, “Compounds for the treatment of BRAF-associated diseases and disorders” (Pfizer Inc., priority 2020, dated 2025)
Where a name gives a salt, the structure may show the parent alone. Read-outs that look alike come from different tables or passages of the source.

How the values were obtained:
P-gp (MDR1) = P-gp (MDR1) (Homo sapiens (Human), UniProt P08183); test: MDR1 LLC-PK1 permeability assay: efflux ratio; type: in vitro ADME; settings: pig
Text: (§1) Final organic concentration in the assay was 1%.

BCRP = BCRP (Homo sapiens (Human), UniProt Q9UNQ0); test: BCRP MDCKII permeability assay: efflux ratio; type: in vitro ADME; settings: dog
Method: BCRP transfected MDCKII cells were cultured and plated according to manufacturer's recommendations. Assay conditions included with and without the BCRP-specific inhibitor, KO143, at a concentration of 0.3 μM to ascertain the contribution of BCRP to the efflux value of the test compound.
Both positive and negative controls were used to assess functionality of P-gp or BCRP efflux in the assays. […] Final organic concentration in the assay was 1%. All dosing solutions contained 10 μM lucifer yellow to monitor LLC-PK1 or MDCKII cell monolayer integrity.
For the apical to basolateral determination (A to B), 75 μL of the test article in transport buffer were added to the apical side of the individual transwells and 250 μL of basolateral media, without compound or lucifer yellow, were added to each well. For the basolateral to apical determination (B to A), 250 μL of test article in transport buffer were added to each well and 75 μL transport buffer, without compound or lucifer yellow, were added to each transwell. All tests were performed in triplicate, and each compound was tested for both apical to basolateral and basolateral to apical transport. The plates were incubated for 2 hours on a Lab-Line Instruments Titer Orbital Shaker (VWR, West Chester, PA) at 50 rpm and 37° C. with 5% CO2. All culture plates were removed from the incubator and 50 μL of media were removed from the apical and basolateral portion of each well and added to 150 μL of 1 μM labetalol in 2:1 acetonitrile (acetonitrile): H2O, v/v.
These values were accepted when found to be below 2% for apical to basolateral and 5% basolateral to apical flux across the MDR1-transfected LLC-PK1 or BCRP-transfected MDCKII cell monolayers. The plates were sealed and the contents of each well analyzed by LC-MS/MS. The compound concentrations were determined from the ratio of the peak areas of the compound to the internal standard (labetalol) in comparison to the dosing solution.
The LC-MS/MS system was comprised of an HTS-PAL autosampler (Leap Technologies, Carrboro, NC), an HP1200 HPLC (Agilent, Palo Alto, CA), and a MDS Sciex 4000 Q Trap system (Applied Biosystems, Foster City, CA). […] The total run time, including re-equilibration, for a single injection was 1.2 minutes. Mass spectrometric detection of the analytes was accomplished using the ion spray positive mode.
An efflux ratio is calculated from the mean apical to basolateral (A-B) Papp data and basolateral to apical (B-A) Papp data using the following equation: Efflux ratio=Papp(B-A)/Papp(A-B)

[1] = MDR1 LLC-PK1 and BCRP MDCKII permeability assay: permeability coefficient (Papp); type: in vitro ADME
Text: as §1

[2] = molecular target: full-length FLAG-tagged B-Raf(V600E) (Homo sapiens (Human), UniProt P15056, V600E); test: BRAF V600E enzyme assay (TR-FRET competitive displacement); type: binding
Procedure, shortened: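 TR-FRET tracer competition: compound (top dose 10 μM, 3-fold, 11 points) incubated 60 min at ambient temperature with FLAG-tagged full-length B-Raf(V600E) (5 nM), Eu anti-FLAG cryptate (0.5 nM) and tracer (50 nM), pH 7.4 HEPES/MgCl2 buffer. 665/615 ratio converted to percent of control; IC50 where fitted curve crosses 50 POC.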

H1755 cells = test: Cellular phospho-ERK inhibition assay in H1755 cells; type: cell-based; settings: Homo sapiens, NCI-H1755, 2 hours treatment, read-out: H1755 Cell IC50
Method: A375 and H1755 cells were obtained from the American Type Culture Collection (ATCC, Rockville, MD). A375 cells were maintained in DMEM growth medium containing 10% FBS. H1755 cells were maintained in RPMI growth medium containing 10% FBS.
Cells were harvested according to standard protocols, counted and plated onto flat-bottom, 96-well tissue culture plates (Costar #3599) at 2.5×10^4 cells/well for A375 cells and 1.5×10^4 cells/well for H1755 cells in 100 μL/well of growth medium containing 10% FBS. After an overnight incubation at 37° C. with 5% CO2 cells were treated for 2 hours at 37° C., 5% CO2 with compounds prepared as a 9-point, 1:3.33 fold dilution series with final compound concentrations ranging from 66 pM-10 μM and a constant DMSO concentration of 0.25%. Control wells contained either 0.25% DMSO alone (uninhibited control) or 10 μM binimetinib (complete inhibition control). The levels of phosphorylated ERK are determined using an In Cell Western protocol: following compound incubation, growth medium was discarded, and cells were fixed with 0.4% formaldehyde in PBS for 20 minutes at room temperature. Cells were permeabilized with 100% methanol for 10 minutes at room temperature. Plates were washed with PBS containing 0.05% Tween-20 and blocked for 1 hour at room temperature with LI-COR Blocking Buffer (LI-COR Biosciences; Cat #927-40000). Plates were then incubated for 2 hours at room temperature with 50 μL of a 1:400 dilution of anti-phospho-ERK1/2 (Thr202/Tyr204) (Cell Signaling; Cat #9101) and a 1:1000 dilution of anti-GAPDH (Millipore; Cat #MAB374) in LI-COR blocking buffer containing 0.05% Tween-20. Plates were washed with PBS containing […] Tween-20 then incubated at room temperature for 1 hour with 50 μL of a 1:1000 dilution of anti-rabbit AlexaFluor 680 (Life Technologies; Cat #A21109) and a 1:1000 dilution of anti-mouse IRDye 800CW (LI-COR; Cat #926-32210) in LI-COR blocking buffer containing 0.05% Tween-20. Plates were analyzed by reading on an Odyssey CLx infrared scanner. For each well, the phospho-ERK signal was normalized to the GAPDH signal and converted to POC using the following equation:
[formula] • Where: • Xmax Average Uninhibited Controls • Xmin Average Complete Inhibition Controls IC50 values were then calculated using a 4-parameter fit in XLfit software and are provided in Table A1.

A375 cells = test: Cellular phospho-ERK inhibition assay in A375 cells; type: cell-based; settings: Homo sapiens, A-375, A375 cells (head prints A357), 2 hours treatment, read-out: A357 cell IC50
Procedure, shortened: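 In Cell Western detection of phospho-ERK1/2 (Thr202/Tyr204) over GAPDH after 2 h compound exposure (66 pM to 10 μM, 9 points, 0.25% DMSO) of A375 cells in DMEM or H1755 cells in RPMI, both with 10% FBS. Percent of control set by DMSO and 10 μM binimetinib; 4-parameter IC50.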

[3] = averaged IC50, TR-FRET tracer displacement, 60 min

BCRP, sequence (Q9UNQ0 whole entry): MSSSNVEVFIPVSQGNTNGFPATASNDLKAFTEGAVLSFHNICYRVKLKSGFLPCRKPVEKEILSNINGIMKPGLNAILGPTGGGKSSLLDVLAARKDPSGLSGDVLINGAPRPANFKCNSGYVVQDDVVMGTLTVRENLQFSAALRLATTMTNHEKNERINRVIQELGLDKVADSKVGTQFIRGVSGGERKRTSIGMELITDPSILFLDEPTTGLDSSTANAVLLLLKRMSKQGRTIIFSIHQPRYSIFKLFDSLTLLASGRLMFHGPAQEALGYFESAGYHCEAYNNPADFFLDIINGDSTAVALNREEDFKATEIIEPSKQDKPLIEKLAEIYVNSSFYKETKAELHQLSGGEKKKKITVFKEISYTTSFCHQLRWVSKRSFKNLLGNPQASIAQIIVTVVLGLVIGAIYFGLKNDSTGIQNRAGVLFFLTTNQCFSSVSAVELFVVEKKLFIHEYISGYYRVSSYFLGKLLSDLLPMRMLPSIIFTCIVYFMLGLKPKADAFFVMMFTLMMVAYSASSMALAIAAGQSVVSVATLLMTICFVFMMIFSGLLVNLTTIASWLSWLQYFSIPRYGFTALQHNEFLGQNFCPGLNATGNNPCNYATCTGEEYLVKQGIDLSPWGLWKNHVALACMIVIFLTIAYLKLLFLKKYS
full-length FLAG-tagged B-Raf(V600E), sequence (P15056 whole entry V600E): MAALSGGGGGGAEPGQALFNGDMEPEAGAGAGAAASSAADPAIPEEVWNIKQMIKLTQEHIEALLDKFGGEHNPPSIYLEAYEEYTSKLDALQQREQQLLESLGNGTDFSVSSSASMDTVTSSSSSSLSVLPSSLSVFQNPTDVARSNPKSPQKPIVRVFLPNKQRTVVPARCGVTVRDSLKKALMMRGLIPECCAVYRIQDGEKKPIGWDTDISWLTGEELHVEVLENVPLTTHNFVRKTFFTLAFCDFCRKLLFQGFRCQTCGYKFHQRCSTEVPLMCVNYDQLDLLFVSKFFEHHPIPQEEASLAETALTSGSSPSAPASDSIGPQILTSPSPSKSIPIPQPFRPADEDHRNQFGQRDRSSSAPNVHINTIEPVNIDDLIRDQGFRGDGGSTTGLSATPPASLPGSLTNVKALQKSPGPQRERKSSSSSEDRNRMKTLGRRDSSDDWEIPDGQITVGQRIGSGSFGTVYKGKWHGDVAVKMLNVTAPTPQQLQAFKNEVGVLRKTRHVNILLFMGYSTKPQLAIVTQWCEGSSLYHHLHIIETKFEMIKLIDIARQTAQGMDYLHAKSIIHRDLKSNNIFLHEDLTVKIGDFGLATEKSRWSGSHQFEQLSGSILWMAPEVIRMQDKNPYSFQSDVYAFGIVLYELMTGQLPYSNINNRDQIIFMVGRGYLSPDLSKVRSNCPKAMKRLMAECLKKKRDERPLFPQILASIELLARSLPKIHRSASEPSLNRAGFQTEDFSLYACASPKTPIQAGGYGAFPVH
P-gp (MDR1), sequence (P08183 whole entry, species assumed): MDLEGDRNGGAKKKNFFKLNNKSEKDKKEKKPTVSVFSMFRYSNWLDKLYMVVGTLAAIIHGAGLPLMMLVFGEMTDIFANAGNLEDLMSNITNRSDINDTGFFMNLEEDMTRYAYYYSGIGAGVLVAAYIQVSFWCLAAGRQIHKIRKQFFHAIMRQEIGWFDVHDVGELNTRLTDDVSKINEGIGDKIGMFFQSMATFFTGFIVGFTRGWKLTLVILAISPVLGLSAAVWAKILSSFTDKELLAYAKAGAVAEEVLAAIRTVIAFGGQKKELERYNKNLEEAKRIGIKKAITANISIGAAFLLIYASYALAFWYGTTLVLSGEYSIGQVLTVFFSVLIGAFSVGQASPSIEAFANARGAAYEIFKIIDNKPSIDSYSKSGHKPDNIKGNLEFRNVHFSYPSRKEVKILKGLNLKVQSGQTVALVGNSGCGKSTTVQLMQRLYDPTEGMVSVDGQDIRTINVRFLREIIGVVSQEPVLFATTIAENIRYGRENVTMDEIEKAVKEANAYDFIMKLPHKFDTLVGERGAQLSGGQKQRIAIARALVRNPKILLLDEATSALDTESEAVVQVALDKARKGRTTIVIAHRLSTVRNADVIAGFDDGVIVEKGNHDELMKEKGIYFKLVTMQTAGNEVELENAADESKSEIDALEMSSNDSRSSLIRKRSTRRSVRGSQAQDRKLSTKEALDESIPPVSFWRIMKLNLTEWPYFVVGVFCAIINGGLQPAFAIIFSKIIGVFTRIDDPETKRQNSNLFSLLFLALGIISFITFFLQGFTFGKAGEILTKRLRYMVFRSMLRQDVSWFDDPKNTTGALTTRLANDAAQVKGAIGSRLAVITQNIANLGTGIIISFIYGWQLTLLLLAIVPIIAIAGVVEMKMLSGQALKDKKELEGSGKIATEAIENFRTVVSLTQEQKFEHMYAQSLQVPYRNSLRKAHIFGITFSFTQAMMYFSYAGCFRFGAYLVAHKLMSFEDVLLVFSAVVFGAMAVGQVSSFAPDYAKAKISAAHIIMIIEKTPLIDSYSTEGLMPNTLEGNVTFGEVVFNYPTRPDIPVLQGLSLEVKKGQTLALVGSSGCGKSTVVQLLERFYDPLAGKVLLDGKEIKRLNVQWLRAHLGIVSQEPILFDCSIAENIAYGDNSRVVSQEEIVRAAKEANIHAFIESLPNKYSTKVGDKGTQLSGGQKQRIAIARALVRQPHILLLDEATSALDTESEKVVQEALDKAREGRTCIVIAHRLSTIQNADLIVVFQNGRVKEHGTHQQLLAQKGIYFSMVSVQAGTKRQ

efflux ratio at 2 h, 1 µM (P-gp (MDR1)) | efflux ratio at 2 h, 1 µM (BCRP) | Papp at 2 h, 1 µM [1] [×10⁻⁶ cm/s] | IC50 [2, 3] [nM] | IC50 (H1755 cells) [nM] | IC50 (A375 cells) [nM] | IC50 [2] [nM] | SMILES
2.8 | 6.3 | 30 | 1 | 103 | 2 |  | Cn1cnc2ccc(Nc3c(F)c(F)cc(NS(=O)(=O)N4CC[C@@H](F)C4)c3Cl)c(F)c2c1=O [Example 46, (R)-N-(2-chloro-4,5-difluoro-3-((5-fluoro-3-methyl-4-oxo-3,4-dihydroquinazolin-6-yl)amino)phenyl)-3-fluoropyrrolidine-1-sulfonamide trifluoroacetate]
3.1 | 1.6 | 18 |  | 61 | 7 | 2 | Cn1cnc2ccc(Oc3c(F)ccc(NS(=O)(=O)N4CC[C@@H](OC(F)F)C4)c3Cl)c(Cl)c2c1=O [Example 60, (R)-N-(2-chloro-3-((5-chloro-3-methyl-4-oxo-3,4-dihydroquinazolin-6-yl)oxy)-4-fluorophenyl)-3-(difluoromethoxy)pyrrolidine-1-sulfonamide]
 |  |  | 15 | 268 | 147 |  | CO[C@@H]1CCN(S(=O)(=O)Nc2cc(Cl)cc(Nc3ccc4ncn(C)c(=O)c4c3C)c2F)C1 [Example 105, (R)-N-(5-chloro-3-((3,5-dimethyl-4-oxo-3,4-dihydroquinazolin-6-yl)amino)-2-fluorophenyl)-3-methoxypyrrolidine-1-sulfonamide]
3.5 |  | 34 | 4 | 41 | 6 |  | COCC1CN(S(=O)(=O)Nc2ccc(F)c(Oc3ccc4ncn(C)c(=O)c4c3Cl)c2Cl)C1 [Example 118, N-(2-chloro-3-((5-chloro-3-methyl-4-oxo-3,4-dihydroquinazolin-6-yl)oxy)-4-fluorophenyl)-3-(methoxymethyl)azetidine-1-sulfonamide]
3.8 |  | 30 | 2 | 69 | 4 |  | Cn1cnc2ccc(Oc3c(F)ccc(NS(=O)(=O)N4CC(F)C4)c3Cl)c(Cl)c2c1=O [Example 120, N-(2-chloro-3-((5-chloro-3-methyl-4-oxo-3,4-dihydroquinazolin-6-yl)oxy)-4-fluorophenyl)-3-fluoroazetidine-1-sulfonamide]
 |  |  | 141 | 857 | 124 |  | CCc1c(Nc2c(F)ccc(NS(=O)(=O)N3CCCC3)c2Cl)ccc2ncn(C)c(=O)c12 [Example 52, N-(2-chloro-3-((5-ethyl-3-methyl-4-oxo-3,4-dihydroquinazolin-6-yl)amino)-4-fluorophenyl)pyrrolidine-1-sulfonamide trifluoroacetate]
5.3 |  | 32 | 4 | 10 | 3 |  | Cn1cnc2ccc(Nc3c(F)ccc(NS(=O)(=O)N4CC(COC(F)F)C4)c3Cl)c(F)c2c1=O [Example 139, N-(2-chloro-4-fluoro-3-((5-fluoro-3-methyl-4-oxo-3,4-dihydroquinazolin-6-yl)amino)phenyl)-3-((difluoromethoxy)methyl)azetidine-1-sulfonamide trifluoroacetate]

The next lines start with the compound.

SMILES | efflux ratio at 2 h, 1 µM (P-gp (MDR1)) | efflux ratio at 2 h, 1 µM (BCRP) | Papp at 2 h, 1 µM [1] [×10⁻⁶ cm/s] | IC50 [2, 3] [nM] | IC50 (H1755 cells) [nM] | IC50 (A375 cells) [nM] | IC50 [2] [nM]
COC1CN(S(=O)(=O)Nc2ccc(F)c(Oc3ccc4ncn(C)c(=O)c4c3Cl)c2Cl)C1 [Example 119, N-(2-chloro-3-((5-chloro-3-methyl-4-oxo-3,4-dihydroquinazolin-6-yl)oxy)-4-fluorophenyl)-3-methoxyazetidine-1-sulfonamide] | 3.8 |  | 32 | 6 | 51 | 8 | 
COCC1CN(S(=O)(=O)Nc2ccc(F)c(Nc3ccc4ncn(C)c(=O)c4c3F)c2Cl)C1 [Example 133, N-(2-chloro-4-fluoro-3-((5-fluoro-3-methyl-4-oxo-3,4-dihydroquinazolin-6-yl)amino)phenyl)-3-(methoxymethyl)azetidine-1-sulfonamide trifluoroacetate] | 5.7 |  | 33 | 5 | 11 | 1 | 
Cc1c(Nc2c(F)ccc(NS(=O)(=O)N3CC(C)(F)C3)c2Cl)ccc2ncn(C)c(=O)c12 [Example 155, N-(2-chloro-3-((3,5-dimethyl-4-oxo-3,4-dihydroquinazolin-6-yl)amino)-4-fluorophenyl)-3-fluoro-3-methylazetidine-1-sulfonamide trifluoroacetate] | 1.4 | 1.2 | 34 |  | 1770 | 99 | 
Cn1cnc2ccc(Nc3cc(Cl)cc(NS(=O)(=O)N4CC[C@@H](F)C4)c3F)c(Cl)c2c1=O [Example 56, (R)-N-(5-chloro-3-((5-chloro-3-methyl-4-oxo-3,4-dihydroquinazolin-6-yl)amino)-2-fluorophenyl)-3-fluoropyrrolidine-1-sulfonamide trifluoroacetate] | 2.3 | 2.8 |  | 1 | 23 | 4 | 
Cc1c(Nc2c(F)c(F)cc(NS(=O)(=O)N3CC4CC3C4)c2Cl)ccc2ncn(C)c(=O)c12 [Example 101, N-(2-chloro-3-((3,5-dimethyl-4-oxo-3,4-dihydroquinazolin-6-yl)amino)-4,5-difluorophenyl)-2-azabicyclo[2.1.1]hexane-2-sulfonamide] |  |  |  | 3 | 434 | 37 | 
Cn1cnc2ccc(Nc3c(F)ccc(NS(=O)(=O)N4CC(F)C4)c3Cl)c(F)c2c1=O [Example 127, N-(2-chloro-4-fluoro-3-((5-fluoro-3-methyl-4-oxo-3,4-dihydroquinazolin-6-yl)amino)phenyl)-3-fluoroazetidine-1-sulfonamide trifluoroacetate] | 3.8 | 5.1 | 34 |  | 16 | 2 | 
COCC1CN(S(=O)(=O)Nc2ccc(F)c(Nc3ccc4ncn(C)c(=O)c4c3Cl)c2Cl)C1 [Example 132, N-(2-chloro-3-((5-chloro-3-methyl-4-oxo-3,4-dihydroquinazolin-6-yl)amino)-4-fluorophenyl)-3-(methoxymethyl)azetidine-1-sulfonamide trifluoroacetate] | 2.7 |  | 36 | 13 | 33 | 3 | 
Cn1cnc2ccc(Oc3c(F)ccc(NS(=O)(=O)N4C[C@@H](F)[C@@H](F)C4)c3Cl)c(F)c2c1=O [Example 64, cis-N-(2-chloro-4-fluoro-3-((5-fluoro-3-methyl-4-oxo-3,4-dihydroquinazolin-6-yl)oxy)phenyl)-3,4-difluoropyrrolidine-1-sulfonamide] | 4.5 |  | 34 |  | 64 | 7 | 2
C=Cc1c(Nc2c(F)ccc(NS(=O)(=O)N3CCCC3)c2Cl)ccc2ncn(C)c(=O)c12 [Example 51, N-(2-chloro-4-fluoro-3-((3-methyl-4-oxo-5-vinyl-3,4-dihydroquinazolin-6-yl)amino)phenyl)pyrrolidine-1-sulfonamide trifluoroacetate] |  |  |  | 77 | 278 | 58 | 
